# Read-outs that look alike come from different tables or passages of the source.
# Experiments:
# IPEC-1 cells [1] = details: for Individual toxicity compared with DON: IPEC-1, 48 h, dose-effect curves; for IC50: read-out: IC50 (dose leading to a 50% reduction in cell viability); for IC50 / IC50 (dose leading to a 50% reduction in cell viability): mean ± SEM of three biological replicates; for Toxicity to intestinal cells at high concentrations: IPEC-1, concentrations of up to 300 µM
# IPEC-1 cells [2] = test: cells; details: Sus scrofa, 48 h, read-out: IC50 (dose leading to a 50% reduction in cell viability)
# IPEC-J2 = details: read-out: relative IC50; cited from earlier work
# [3] = system: lymphocytes and splenocytes; details: cited from earlier work
# [4] = system: human multiple myeloma blood cells; details: cited from earlier work
# HepG2 [5] = details: cited from earlier work
# Caco-2 = details: cited from earlier work
# THP-1 cells = details: THP-1, 2 mM; cited from earlier work
# A549 = details: A549, 2 mM; cited from earlier work
# HepG2 [6] = details: HepG2, 2 mM; cited from earlier work
# [7] = lymphocytes and splenocytes, low doses (> 0.1µM)
# [8] = ratio 3, highest concentration(s): DON 50 µM + EMO 5 µM / ENN-B 17.2 µM / BEA 2.3 µM / ENN-A1 6.5 µM, ENN-B1 6 and 18 µM
molecule,measurement,setting,value
CCC(=O)CCCCC[C@@H]1NC(=O)[C@H]2CCCCN2C(=O)[C@H]([C@@H](C)CC)NC(=O)[C@H](Cc2cn(OC)c3ccccc23)NC1=O [Apicidin],Toxicity (classification from IC50 compared with DON),IPEC-1 cells [1],Highly toxic
same,Toxicity of the emerging mycotoxin alone,IPEC-1 cells [1],not toxic
same,Individual toxicity compared with DON,IPEC-1 cells [1],more toxic than DON
same,Concentration at which toxicity was confirmed,IPEC-1 cells [1]; pig,> 0.5 µM
same,Toxicity of the combination of DON and the emerging mycotoxin,"IPEC-1 cells [1]; ratio 2, doses lower than DON (5.6 µM) + API (0.09 µM)","lower than the toxicity of DON alone, but higher than API alone"
same,IC50,IPEC-1 cells [2],1.5 ± 0.5 µM
COC1=C(C2=C(OC)C(=O)c3cc4oc(C)cc(=O)c4c(O)c3C2=O)C(=O)c2c(cc3oc(C)cc(=O)c3c2O)C1=O [Aurofusarin],IC50,IPEC-J2,9.3 µM
same,Toxicity (classification from IC50 compared with DON),IPEC-1 cells [1],Moderately toxic
same,Toxicity of the emerging mycotoxin alone,IPEC-1 cells [1],minimal
same,Individual toxicity compared with DON,IPEC-1 cells [1],less than that of DON
same,IC50,IPEC-1 cells [1],19.1 ± 3.4 µM
O=C1N[C@@H](Cc2c[nH]c3ccccc23)C(=O)N2CCC[C@@H]12 [Brevianamide F],Toxicity (classification from IC50 compared with DON),IPEC-1 cells [1],Non-toxic
same,Toxicity to intestinal cells at high concentrations,IPEC-1 cells [1],not toxic
same,IC50 (dose leading to a 50% reduction in cell viability),IPEC-1 cells [1],Non-Toxic
O=C1N[C@@H](Cc2ccc(O)cc2)C(=O)N2CCC[C@@H]12 [Cyclo-(L-Pro-L-Tyr)],Toxicity (classification from IC50 compared with DON),IPEC-1 cells [1],Non-toxic
same,Toxicity to intestinal cells at high concentrations,IPEC-1 cells [1],not toxic
same,IC50 (dose leading to a 50% reduction in cell viability),IPEC-1 cells [1],Non-Toxic
CC1=C[C@H]2O[C@@H]3[C@H](O)C[C@](C)([C@@]2(CO)[C@H](O)C1=O)[C@]31CO1 [Deoxynivalenol],Toxicity (classification from IC50 compared with DON),IPEC-1 cells [1],Highly toxic
same,IC50,IPEC-1 cells [1],3.2 ± 0.7 µM
same,Proliferation,[3]; [7],up to 200%
Cc1cc(O)c2c(c1)C(=O)c1cc(O)cc(O)c1C2=O [Emodin],IC50,IPEC-J2,13.1 µM
same,IC50,[4],38 µM
same,Proliferation induced by the toxin alone,IPEC-1 cells [1],up to 130%
same,Toxicity (classification from IC50 compared with DON),IPEC-1 cells [1],Moderately toxic
same,Individual toxicity compared with DON,IPEC-1 cells [1],less than that of DON
same,Toxicity of the combination of DON and the emerging mycotoxin,IPEC-1 cells [1]; [8],less toxic than DON alone
same,IC50,IPEC-1 cells [2],19 ± 0.7 µM
CC[C@H](C)[C@H]1C(=O)O[C@H](C(C)C)C(=O)N(C)[C@@H](C(C)C)C(=O)O[C@H](C(C)C)C(=O)N(C)[C@@H](C(C)C)C(=O)O[C@H](C(C)C)C(=O)N1C [Enniatin B1],Toxicity (classification from IC50 compared with DON),IPEC-1 cells [1],Moderately toxic
same,Toxicity of the emerging mycotoxin alone,IPEC-1 cells [1],minimal
same,Individual toxicity compared with DON,IPEC-1 cells [1],less than that of DON
same,Toxicity of the combination of DON and the emerging mycotoxin,"IPEC-1 cells [1]; in mixture with DON, ratio 3, in general (exceptions reported separately)",the same as the toxicity of DON alone
same,Toxicity of the combination of DON and the emerging mycotoxin,"IPEC-1 cells [1]; ratio 2, highest concentration: DON 50 µM + ENN-B1 4.1 µM / ENN-B 3.6 µM / ENN-A1 1.7 µM","higher than the toxicity of ENN-B1 alone, but lower than the toxicity of DON alone"
same,Toxicity of the combination of DON and the emerging mycotoxin,IPEC-1 cells [1]; [8],"the same as the toxicity of ENN-B1 alone, but lower than the toxicity of DON alone"
same,IC50,IPEC-1 cells [2],13.5 ± 2.5 µM
CC(C)[C@H]1C(=O)O[C@H](C(C)C)C(=O)N(C)[C@@H](C(C)C)C(=O)O[C@H](C(C)C)C(=O)N(C)[C@@H](C(C)C)C(=O)O[C@H](C(C)C)C(=O)N1C [Enniatin B],Toxicity (classification from IC50 compared with DON),IPEC-1 cells [1],Highly toxic
same,Toxicity of the emerging mycotoxin alone,IPEC-1 cells [1],not toxic
same,Individual toxicity compared with DON,IPEC-1 cells [1],close to that of DON
same,Toxicity of the combination of DON and the emerging mycotoxin,IPEC-1 cells [1]; [8],lower than the toxicity of either DON alone or ENN-B alone
same,IC50,IPEC-1 cells [2],4.4 ± 0.9 µM
same,Toxicity,HepG2 [5],no toxicity at all
same,Toxicity,Caco-2,no toxicity at all
OCCc1c[nH]c2ccccc12 [Tryptophol],DNA damage,THP-1 cells,induced DNA damage
same,DNA damage,A549,induced DNA damage
same,DNA damage,HepG2 [6],induced DNA damage
same,Toxicity (classification from IC50 compared with DON),IPEC-1 cells [1],Non-toxic
same,Toxicity to intestinal cells at high concentrations,IPEC-1 cells [1],not toxic
same,IC50 (dose leading to a 50% reduction in cell viability),IPEC-1 cells [1],Non-Toxic
CCCC[C@@H](C)[C@@H](OC(=O)C[C@@H](CC(=O)O)C(=O)O)[C@H](C[C@@H](C)C[C@H](O)CCCC[C@@H](O)C[C@H](O)[C@H](C)N)OC(=O)C[C@@H](CC(=O)O)C(=O)O [fumonisin B1],Proliferation,[3]; [7],up to 200%
CC1=C[C@H]2O[C@@H]3[C@H](O)[C@@H](O)[C@](C)([C@@]2(CO)[C@H](O)C1=O)[C@]31CO1 [nivalenol],Proliferation,[3],up to 200%
Beauvericin,IC50,IPEC-1 cells [1],4.3 ± 1.8 µM
Enniatin A1,IC50,IPEC-1 cells [1],1.6 ± 0.3 µM
aflatoxin B1,Proliferation,[3],up to 200%

# — article PMC6950336, “Co-Occurrence of DON and Emerging Mycotoxins in Worldwide Finished Pig Feed and Their Combined Toxicity in Intestinal Cells” (Toxins, 2019)
